Source: patent publication US10220040B2, “Compounds, compositions and methods useful for cholesterol mobilization” (Cerenis Therapeutics Holding SA, priority 2010, dated 2019)

What was measured:
[1] = target: human P2Y13 receptor (Homo sapiens (Human), UniProt Q9BPV8); test: Ca++ flux agonist assay on P2Y13 receptor transfected 1321N1 cells; format: cell-based; conditions: comma is decimal sign
Procedure: Compounds were assayed for their agonist activity on P2Y13 GPCR transfected cells using a Ca++ flux assay (associated to fluorescent dye detection) with the Reference Compound as positive reference. Two cell lines, 1321N1-P2Y13 stably expressing human P2Y13 receptor, and 1321N1 parental cell line as control, were used in this assay. 1321N1 Parental and 1321N1 P2Y13 were seeded into T25 flasks at 3 million cells per flask, respectively. Cells were incubated at 37 degrees Celsius in 5% CO2 overnight. The day after, cells were transfected with Gqi5 protein using Fugene transfection reagent (Roche's Fugene Reagent).
After 24 hours of transfection, cells were collected from flasks and seeded in 384-well plates at 8000 cells per well. The assays were carried out 48 hours after Gqi5 transfection.
Methods: The Ca++ flux assay was conducted according to the manufacturer's protocol (Molecular Devices FLIPR Calcium 4 Assay kit (R8142). Briefly, cell culture media were aspirated from the wells and replaced with 25 μL of Hank's buffer or PBS buffer. 25 μL of Ca++ dye was added into each assay well. The plate was incubated for 1 hour at 37° C. in 5% CO2. After the incubation, the plate was transferred to FlexStation III (FlexStation III (Molecular Devices)). The compounds were automatically injected into each well.

[2] = tested on: HepG2 cells; test: In vitro HDL internalization in human hepatocytes (HepG2) cells; format: cell-based; conditions: compound 1 μM; 3H-labeled HDL 75 μg/ml, 10 min at 37° C.
Procedure: FIG. 3: Single-dose effect of the selected molecules on HDL internalization by HepG2 cells. Cells were incubated for 10 min at 37° C. with 75 μg/ml ^3H cholesterol Cholesteryl Oleate [Cholesteryl-1,2-^3H(N)] HDL, Reference Compound (100 nM) and illustrative compounds of the invention (1 μM). Data are expressed as the percentage of internalized radioactivity with respect to the control value (set as […]). *p<0.005, **p<0.0001.
The effect of illustrative compounds of the invention on HDL internalization was measured by an in vitro assay on HepG2 cells (FIG. 3). ^3H cholesterol Cholesteryl Oleate [Cholesteryl-1,2-^3H(N)] labeled HDL] (available from PerkinElmer http://www.perkinelmer.com/Catalog/Product/ID/NET746L001MC) was loaded on HepG2 cells in presence of illustrative compounds of the invention (final concentration 1 μM). […] It was determined that Compounds XIa, IIc, IIa and Ih (R-isomer) have a strong impact on HDL uptake by HepG2 cells; Compounds IIb, VIIa and VIIIa have a modest impact on HDL uptake by HepG2 cells.
^3H cholesterol Cholesteryl Oleate [Cholesteryl-1,2-^3H(N)] (Perkin Elmer) solution (250 μL) was dried and resuspended in acetone (250 μL). The solution was mixed with Lipoprotein delipidated serum (20 mL at 40 mg/mL) and DTNB (0.4 μM final concentration). HDL (7 mg) was added and incubated overnight at 4° C. on gentle rotation. The HDL was purified on KBr gradient as previously described.
Hepatocytes were plated at 300,000 cells/well in 6×-well plates. Two days later, the cells were washed once with DMEM and incubated for 1 hour in DMEM at 37° C. 75 μg of radio-labeled HDL (6500 dpm/μg) were added to the medium and incubated for 10 minutes at 37° C. The cells were washed once with DMEM (2 mL) and incubated for 1.5 hours in DMEM at 4° C., whereupon dissociation occurred. Then the cells were washed once more with cold DMEM (2 mL) and the incorporated cholesterol ether was retrieved from HepG2 cells by the addition of hexane:isopropanol (3:2) solution (1 mL).

[3] = tested on: C57Bl6 mice; test: Dose response on bile physiology after single oral gavage in mice; format: in vivo; conditions: oral gavage 0.003, 0.03 and 0.3 mg/kg, bile analyzed 6 hours later
Procedure: FIG. 16A-J: Increase of bile secretion following activation of P2Y13r pathway in mice. C57Bl/6J mice (n=10) were fasted for 2 h and then intravenously injected with Cangrelor® or Compound IIa (10 nmoles/kg). Four hours later the gallbladders were removed and analyzed for: Bile acids content (FIG. 16A); Bile cholesterol content (FIG. 16B). C57Bl/6J mice (n=10) were fasted for 2 h followed by single oral dose of P2Y13r agonist Compound IIa at 3, 30 or 300 μg/kg. Six hours later bile acids contents (FIG. 16C); bile cholesterol content (FIG. 16D), and bile acid content of liver (FIG. 16E) were evaluated using HPLC and enzymatic kits for gallbladers. Plasma samples were collected at time 0 and after 6 h of treatment, then analyzed for: total cholesterol (▴), unesterified cholesterol (●), esterified cholesterol (▪) and HDL cholesterol (▾) determined using either enzymatic kits or Lipoprint® for HDL cholesterol (FIG. 16F). C57Bl/6J mice (n=5) were intravenously injected with [^3H]-cholesterol-labelled mouse HDL (FIG. 16G), [^3H]-cholesteryl oleate-labelled mouse HDL (FIG. 16H) or [^3H]-cholesterol-labelled mouse LDL (FIG. 16I), and with Cangrelor® or Compound IIa (10 nmoles/kg). Radioactivity present in the liver was determined 2 hours later for the HDL or 5 hours later for the LDL. Cholesterol content of feces from treated animals (100 μg/kg) was determined by Charge aerosol detection (FIG. 16J). *p<0.05, **p<0.01.
The dose response after oral gavage was determined for illustrative compounds of the invention. The chosen doses were 0.003, 0.03 and 0.3 mg/kg. The selected compounds of the invention were administrated by oral gavage and 6 hours later the mice are sacrificed and the bile content was analyzed (FIGS. 6-11).
Bile acids were diluted in PBS (1:5000) and the concentration was measured according to the manufacturer protocol with slight modifications. Concentrations of bile acids in the standard curve were varied from […] and the enzymatic reaction was performed for 20 minutes. 4 μl of 1:5000 bile dilution was used for concentration determination.
Bile phospholipids were measured according to the manufacturer protocol. Briefly, the standards were varied from 0 to 20 μg/ml and 4 μl of bile was measured in the assay. The reaction was performed for 5 minutes at 37° C.
Bile phospholipids were measured according to the manufacturer protocol. Briefly, the standards were varied from 0 to 60 μg/ml and 10 μl of bile (dilution 1:10) was measured in the assay. The reaction was performed for 5 minutes at 37° C.

[4] = tested on: HepG2 cells; conditions: previously reported (Jacquet et al. 2005); positive control; cited from earlier work
[5] = Table 3, measured from data of Figure 1
[6] = Table 4, measured from data of Figure 2

human P2Y13 receptor, sequence (Q9BPV8 whole entry): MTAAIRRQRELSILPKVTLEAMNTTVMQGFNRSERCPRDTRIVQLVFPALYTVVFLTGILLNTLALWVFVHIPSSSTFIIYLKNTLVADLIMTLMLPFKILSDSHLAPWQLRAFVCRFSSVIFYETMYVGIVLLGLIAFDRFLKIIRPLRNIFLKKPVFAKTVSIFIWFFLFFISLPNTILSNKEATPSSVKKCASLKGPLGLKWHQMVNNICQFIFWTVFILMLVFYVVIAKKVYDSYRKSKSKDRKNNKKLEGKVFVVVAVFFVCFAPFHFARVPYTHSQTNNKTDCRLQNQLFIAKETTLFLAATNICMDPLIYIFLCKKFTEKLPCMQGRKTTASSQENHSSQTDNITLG

CCOC(=O)C(C)(C)CCCC[C@H](c1ccccc1Cl)N1CCc2sccc2C1 [Compound Ih (R-isomer)]
EC50 [1, 5]: 42.4 µM | impact on HDL uptake by HepG2 cells [2]: strong impact

CC(C)(CCCCCC(c1ccccc1Cl)N1CCC(O)/C(=C/C(=O)O)C1)C(=O)O (stereo not shown) [Compound Va]
EC50 [1, 5]: 55.2 µM

CCOC(=O)C(C)(C)CCCC[C@@H](c1ccccc1Cl)N1CCc2sccc2C1 [Compound Ih (S-isomer)]
EC50 [1, 5]: 33.7 µM

COCCNCC(=O)Nc1ccc2c(c1)OCCO2 [Compound XIa, N-(2,3-Dihydrobenzo[1,4]dioxin-6-yl)-2-(2-methoxy-ethylamino)-acetamide]
EC50 [1, 6]: 0.0489 µM | impact on HDL uptake by HepG2 cells [2]: strong impact | dose at which an effect on bile acids, bile cholesterol and bile phospholipids was shown [3]: 3 µg/kg

CCOc1cc(C2CC(=O)Nc3c2cnn3-c2ccccc2CC)ccc1O (stereo not shown) [Compound VIIIa, 4-(3-Ethoxy-4-hydroxy-phenyl)-1-(2-ethyl-phenyl)-1,4,5,7-tetrahydro-pyrazolo[3,4-b]pyridin-6-one]
dose at which an effect on bile acids, bile cholesterol and bile phospholipids was shown [3]: 3 µg/kg

O=C(C1OCCc2ccccc21)N1CCC2(CC1)Nc1ccccc1-n1cccc12 (stereo not shown) [Compound VIIa, isochroman-1-yl(5′H-spiro[piperidine-4,4′-pyrrolo[1,2-a]quinoxaline]-1-yl)methanone]
EC50 [1, 6]: 40.3 µM | impact on HDL uptake by HepG2 cells [2]: modest impact | dose at which an effect on bile acids, bile cholesterol and bile phospholipids was shown [3]: 300 µg/kg

6-[1-(2-methylaminopyrimidin-5-ylmethyl)-piperidin-4-yl]-2-piperidin-1-yl-pyrimidin-4-ol [Compound IIc]
EC50 [1, 6]: 6.63 µM | impact on HDL uptake by HepG2 cells [2]: strong impact | dose at which an effect on bile acids, bile cholesterol and bile phospholipids was shown [3]: 3 µg/kg

COc1ccc(CN2CCC(c3cc(O)nc(N4CCCCC4)n3)CC2)cc1O [Compound IIb, 6-[1-(3-Hydroxy-4-methoxybenzyl)-piperidin-4-yl]-2-piperidin-1-yl-pyrimidin-4-ol]
EC50 [1, 6]: 0.299 µM | impact on HDL uptake by HepG2 cells [2]: modest impact | dose at which an effect on bile acids, bile cholesterol and bile phospholipids was shown [3]: 300 µg/kg

CSCCNc1nc(SCCC(F)(F)F)nc2c1ncn2[C@@H]1O[C@H](COP(=O)(O)OP(=O)(O)C(Cl)(Cl)P(=O)(O)O)[C@@H](O)[C@H]1O [Reference Compound, Dichloro-(((((2R,3S,4R,5R)-3,4-dihydroxy-5-(6-(2-(methylthio)ethylamino)-2-(3,3,3-trifluoropropylthio)-9H-purin-9-yl)tetrahydrofuran-2-yl)methoxy)(hydroxy)phosphoryloxy)(hydroxy)phosphoryl)-methylphosphonic acid, reference compound]
EC50 [1, 6]: 0.00632 µM | HDL uptake in HepG2 cells in vitro [4]: increase the HDL uptake
